Consider 4 compounds from patent publication US11766044B2, “Method for controlling PPO resistant weeds” (BASF SE, priority 2016, dated 2023).

Where two headings read alike, the source gives them in different places.

Test [1] concerns sensitive (w.10) and resistant weeds (w.11, w.12). As to the kind of experiment: Third greenhouse experiment, summary in words. It is filed as in vivo, Amaranthus tamariscinus. Particulars: table 4, 2 and 4 g/ha.
Test [2] has as its system sensitive (w.1, w.4) and resistant weeds (w.2, w.3, w.5, w.6). As to the kind of experiment: First greenhouse experiment, summary in words. The class given is in vivo, Amaranthus tamariscinus, Ambrosia elatior. The note with it: table 2, 1 and 2 g/ha.
Test [3] has as its system Amaranthus tamariscinus (AMATA, common waterhemp), Sensitive (w.1). The class given is in vivo.
Test [4] deals with Amaranthus tamariscinus (AMATA, common waterhemp), PPO resistant biotype 1 (w.2). It is filed as in vivo. The note with it: scale 0 to 100.
Test [5] concerns Amaranthus tamariscinus (AMATA, common waterhemp), PPO resistant biotype 2 (w.3). It is filed as in vivo. The note with it: scale 0 to 100.
The test system of test [6] is Ambrosia elatior (AMBEL, common ragweed), Sensitive (w.4). The class given is in vivo. Particulars: scale 0 to 100.
For test [7], the system named is Amaranthus tuberculatus (AMATU, tall waterhemp), Sensitive (w.7). As to the kind of experiment: Greenhouse herbicidal activity test, another (second) experiment, weed w.7. The class given is in vivo. Particulars: scale 0 to 100.

With `CCOC(=O)COc1ccccc1Oc1cc(-n2c(=O)cc(C(F)(F)F)n(C)c2=O)c(F)cc1Cl` [compound (I).4], the “activity on both sensitive and resistant weeds” value in test [1] (sensitive w.10, resistant w.11, w.12) was “very good activity”.

With `C#CCN1C(=O)COc2cc(F)c(N3C(=O)C4=C(CCCC4)C3=O)cc21` [flumioxazin, reference compound], the “control of resistant in comparison to sensitive biotypes” value in test [2] is recorded as “much weaker control”.

Take `CCOC(=O)COc1ncccc1Oc1cc(-n2c(=O)cc(C(F)(F)F)n(C)c2=O)c(F)cc1Cl` [compound (I).1]: the “Weed control (%) w.1” value in test [3] (use rate 1 g/ha, scale 0 to 100) is recorded as 100%; in test [3] (use rate 2 g/ha, scale 0 to 100, 100 = complete destruction), 100%. The “Weed control (%) w.2” value in test [4] (use rate 1 g/ha) and in test [4] (use rate 2 g/ha) was 100% in each case. For the same compound, the “Weed control (%) w.3” value in test [5] (use rate 1 g/ha) and in test [5] (use rate 2 g/ha) was 100% throughout. Further, the “Weed control (%) w.4” value in test [6] (use rate 1 g/ha) and in test [6] (use rate 2 g/ha) was 100% in each case. In addition, the “Weed control (%) 7” value in test [7] (use rate 1 g/ha) and in test [7] (use rate 2 g/ha) was 100% throughout. The “activity on both sensitive and resistant weeds” value in test [2] (sensitive w.1, w.4, resistant w.2, w.3, w.5, w.6) is “very good activity”.

For the compound `C#CCOc1cc(-n2nc3n(c2=O)CCCC3)c(Cl)cc1Cl` [azafenidin, reference compound], the “control of resistant in comparison to sensitive biotypes” value in test [1] is “much weaker control”.
